These results are taken from patent US9949976B2, “Kinase inhibitor and use thereof” (Sihuan Pharmaceutical Holdings Group Ltd., priority 2013, dated 2018).

The test system of assay [1] is PC3 prostatic cancer cell. Kind of assay: BrdU cell proliferation assay (PerkinElme kit). The settings on record: 48 h; read-out: In vitro cell-inhibiting activity IC50 PC3. The class given is cell-based. As to the method:
(§1) Experimental method: cell proliferation assay was carried out by BrdU method (BrdU cell proliferation assay kit, PerkinElme Company).
(§2) Preparation of gradient dilution solutions of test compound: the stock solution containing 5 mM test compound was diluted by DMSO to prepare a 2 mM solution, then was subjected to 4-fold stepwise dilution to 9 concentration gradients.
(§3) (1) Cells grown to exponential growth phase were digested with pancreatin, and centrifuged to collect the cells. The adherent cells were re-suspended in the corresponding culture medium, counted, and seeded to a 96-well plate; H358 cells and SW780 cells were seeded at 4000 cells/well/100 μL; PC3 cells were seeded at 1500 cells/well/100 μL; H441 cells were seeded at 6000 cells/well/100 μL. The plates were placed in a cell incubator at 37° C. After the cells adhered to the wall, the medium was replaced by serum-free medium. The suspended cells MV-4-11 and JeKo-1 were re-suspended with serum-free medium, counted, seeded to a 96-well plate by 10000 cells/well/100 μL and placed in a cell incubator overnight at 37° C. with 5% CO2.
(§4) (2) To each well, 99 μL growth medium containing 2×FBS was added, then 1 μL diluted 200× test compound was added to the well. The final concentration of the test compound was 10000, 2500, 625, 156.25, 39.06, 9.77, 2.44, 0.61, 0.15 or 0 nM, and the cells were cultured for 48 h at 37° C.
(§5) (3) To each well, 2 μL 100-fold BrdU labelled solution was added, and the culture medium was sucked by a vacuum pump after incubation in a cell incubator overnight and equilibrated at room temperature for 0.5 h.
(§6) (4) To each well, 100 μL fixing solution was added; the solution was discarded after incubation for 30 min at room temperature.
(§7) (5) To each well, 100 μL 1-fold BrdU-Eu detection antibody solution was added, the solution was discarded after incubation for 1 h at room temperature, and the well was washed with 1-fold washing liquor at 250 μL/well for 5 times.
(§8) (6) To each well, 200 μL of DELFIA Inducer was added and incubated for 15 min at room temperature. Value of fluorescence (Flu) was measured by ELISA instrument
(§9) (2) The data was processed by GraphPad Prism 6 software to get a curve and IC50 values.

For the next assay, the system named is H441 lung cancer cell. Kind of assay: BrdU cell proliferation assay (PerkinElme kit). As to conditions: Homo sapiens, NCI-H441, 48 h; read-out: In vitro cell-inhibiting activity IC50 H441. The class given is cell-based. On the procedure: as §1, §2, §3, §4, §5, §6, §7, §8, §9
In the next assay the test system is H358 lung cancer cell. Briefly: BrdU cell proliferation assay (PerkinElme kit). The settings on record: Homo sapiens, NCI-H358, 48 h; read-out: In vitro cell-inhibiting activity IC50 H358. Type of assay: cell-based. On the procedure:
as §1, §2, §3, §4, §5, §6, §7, §8, §9

Assay [2] concerns SW780 bladder cancer cell. Briefly: BrdU cell proliferation assay (PerkinElme kit). The settings on record: Homo sapiens, SW780, 48 h; read-out: In vitro cell-inhibiting activity IC50 SW780. The class given is cell-based. As to the method: as §1, §2, §3, §4, §5, §6, §7, §8, §9
For a further assay, the system named is JeKo-1 lymphoma cell. Kind of assay: BrdU cell proliferation assay (PerkinElme kit). Type of assay: cell-based. As to conditions: Homo sapiens, JeKo-1, 48 h; read-out: In vitro cell-inhibiting activity IC50 JeKo-1. On the procedure: as §1, §2, §3, §4, §5, §6, §7, §8, §9
In the next assay the test system is liver cancer PDX model. Kind of assay: In vivo pharmacodynamics, liver cancer PDX model. More on the design: species or system female NU/NU nude mouse. The settings on record: 200 mg/kg PO QD 21 days. On the procedure: Tumor tissues were harvested from tumor-bearing mice of liver cancer PDX model, cut into pieces with diameter of […] and seeded subcutaneously to back of female NU/NU nude mouse. When the tumors' average volume reached 100-300 mm^3, the animals were grouped and administered with a drug. Compound 1 was orally administrated once a day at an amount of 200 mg/kg, for 21 days. The volume of the drug for administration is 0.1 mL/10 g according to animal's body weight.
Tumor volume was measured with vernier calipers twice a week by measuring the major diameter and the minor diameter. The tumor volume is calculated by the following formula: volume=0.5×(major diameter)×(minor diameter)^2. The relative tumor volume (RTV) and the proliferation ratio (T/C) were calculated according to the result of measurement. RTV=Vt/V0, wherein Vt is the average tumor volume on the t day after grouping, and V0 is the average tumor volume on the day of grouping. T/C (%)=RTV of treatment group/RTV of solvent control group×100%.
One-way ANOVA was used for analysing the group statistical analysis of tumor volumes. p<0.05 was regarded as having significant difference.

The subject of assay [3] is HGC-27 gastric cancer cell. Kind of assay: BrdU cell proliferation assay (Cell Signaling kit). Type of assay: cell-based. The settings on record: Homo sapiens, HGC-27, 72 h; read-out: In vitro cell-inhibiting activity IC50 HGC-27. As to the method: Experimental method: cell proliferation assay was carried out by BrdU method (BrdU cell proliferation assay kit, Cell Signaling Technology Company).
Preparation of gradient dilution solutions of test compound: the stock solution containing 10 mM test compound was subjected to 4-fold stepwise dilution with DMSO to prepare solutions containing 2.5 mM, 625 μM, 156 μM, 39 μM, 9.8 μM, and 2.5 μM test compound, respectively. 2 μL DMSO-diluted compound was added to 198 μL culture medium containing 10% FBS to prepare […] test compound, wherein the maximum concentration of the test compound was 100 μM, the concentration of DMSO was 1%, and there were 7 concentration gradients.
HGC-27 medium: DMEM+10% FBS
(1) Cells grown to 80% confluence (in exponential growth phase) were digested with pancreatin, and centrifuged to collect the cells. Cells were re-suspended in FBS-free culture medium, counted, and seeded to a 96-well plate at 4000 cells/well/81 μL. The plates were placed in a cell incubator at 37° C.
(2) After 24 h culture, 9 μL FBS was added to each well to reach a final FBS concentration of 10%. […]
(9) To each well, 100 μL stop solution was added, and OD value at 450 nm was measured by ELISA instrument 3. […]

In the case of `CCN1CCN(Cc2cnc(Nc3cc(-c4cc(F)c5nc(C)n(C(C)C)c5c4)c(F)cn3)nc2)CC1` [Compound 1, 5-((4-ethylpiperazin-1-yl)methyl)-N-(5-fluoro-4-(4-fluoro-1-isopropyl-2-methyl-1H-benzo[d]imidazol-6-yl)pyridin-2-yl)pyrimidin-2-amine], the IC50 – broadly, the concentration that inhibits the measured activity by half – in assay [1] came to 260 nM; in the assay with H441 lung cancer cell it was 148 nM; in the assay on H358 lung cancer cell it was 291 nM; in assay [2], 162 nM; in the assay with JeKo-1 lymphoma cell, 37 nM; in assay [3], 316 nM. Further, the “T/C (proliferation ratio)” value with liver cancer PDX model was found to be 31.74%. Moreover, in the assay on liver cancer PDX model (average ± standard error), the “Tumor volume after administration” value is 199.22 ± 33.76 mm^3. Further, the “Tumor volume before administration” value in the assay with liver cancer PDX model (average ± standard error) came to 164.8 ± 10.35 mm^3.
